Measured values as given in patent US5034530A, “Imidazoquinoxaline compounds and their preparation and use” (Novo Nordisk A/S, priority 1988, dated 1991).

Test system: benzodiazepine receptors
Assay: in vivo displacement of 3H-flunitrazepam specific binding from brain benzodiazepine receptors in mice
Settings: dose reducing specific 3H-flunitrazepam binding in living mouse brain to 50% of control; test substance i.p. 15 min before i.v. 3H-FNM; female mice; forebrain
Source text: The pharmaceutical properties of the compounds of the invention can be illustrated by determining their capability for displacing radioactive labelled flunitrazepam from benzodiazepine receptors.
The displacement activity of the compounds of the invention may be found by determining the ED50 value. The ED50 value represents the dose (mg/kg) of a test substance which causes the specific binding of flunitrazepam to benzodiazepine receptors in a living brain to be reduced to 50% of the control value.
Such an in vivo test is carried out as follows:
Principle. Twenty minutes after a dose of ^3 H-flunitrazepam (^3 H-FNM) (200 μCi/kg, i.v.) the amount of specific ^3 H-FNM binding to brain benzodiazepine receptors has reached its maximal value.
Test procedure. Suspensions of test substances (2 mg/ml) are prepared in 5% Duphasol-X (TM Duphar, castor oil-ethylene oxide derivative for emulsifying and solubilizing oil and other water-insoluble substances) by sonification for 10 min using a Branson B15 microtip ultrasonifier (setting 7). Groups of three mice (female, NMR, 18-22 grams) are injected with the test substance at 100 mg/kg intraperitoneally. Fifteen minutes after test substance administration the mice are challenged with 4 μCi intravenously of ^3 H-FNM (70-90 Ci/mole) in 200 μl physiological saline. Twenty minutes after ^3 H-FNM administration mice are sacrificed by decapitation, the forebrains rapidly excised (within 30 sec) and homogenized in 12 ml of icecold 25 mM KH2 PO4, pH 7.1, using an Ultra-Turrax homogenizer fitted with an N 10 shaft. […] The amounts of radioactivity on the filters are determined by conventional scintillation counting. […]
Results. The ED50 value is determined from dose response curves. If only one dose of test substance is administered the ED50 value is calculated as follows, provided that the inhibition of specific binding is within the range of 25-75%: [formula] where Co is specific binding in controls and Cx is specific binding in mice treated with test substance.

Question: With `Cc1nc2ccccc2n2cnc(-c3noc(C4CC4)n3)c12` [Compound 7, 3-(5-Cyclopropyl-1,2,4-oxadiazol-3-yl)-4-methyl-imidazo[1,5-a]quinoxaline] as the compound, how does the ED50 read?
Answer: The ED50 was 1.3 mg/kg.

Question: Which ED50 does the source give for `Cc1nc(-c2ncn3c2c(C)nc2ccccc23)no1` [Compound 8, 4-Methyl-3-(5-methyl-1,2,4-oxadiazol-3-yl)-imidazo[1,5-a]quinoxaline] here?
Answer: The ED50 was 1.8 mg/kg.

Question: Which ED50 does the source give for `Cc1nc2ccccc2n2cnc(-c3nc(C4CC4)no3)c12` [Compound 10, 3-(3-Cyclopropyl-1,2,4-oxadiazol-5-yl)-4-methyl-imidazo[1,5-a]quinoxaline] here?
Answer: The ED50 was 3.5 mg/kg.
